Results reported in BigSolDB 2.1.

CC[C@@H](C(N)=O)N1CCCC1=O
solubility (mole fraction)
Conditions | in 1,4-dioxane | in acetone | in acetonitrile | in cyclohexane | in ethanol | in ethyl acetate | in isopropanol | in methanol | in n-propanol | in toluene
283.15 K | – | 0.00698 | 0.00909 | 1.37e-05 | 0.0384 | 0.00424 | 0.0115 | 0.0814 | 0.0167 | 0.00122
288.15 K | 0.00718 | 0.00887 | 0.0113 | 1.92e-05 | 0.0459 | 0.00539 | 0.0147 | 0.0974 | 0.0207 | 0.00167
293.15 K | 0.00902 | 0.0111 | 0.0137 | 2.61e-05 | 0.0546 | 0.00676 | 0.0185 | 0.115 | 0.0252 | 0.0022
298.15 K | 0.0112 | 0.014 | 0.0168 | 3.64e-05 | 0.0643 | 0.00847 | 0.0229 | 0.136 | 0.0303 | 0.00299
303.15 K | 0.014 | 0.0175 | 0.0203 | 4.91e-05 | 0.0758 | 0.0104 | 0.0286 | 0.158 | 0.0362 | 0.00393
308.15 K | 0.0173 | 0.0217 | 0.0245 | 6.61e-05 | 0.0885 | 0.0129 | 0.0354 | 0.182 | 0.0434 | 0.00524
313.15 K | 0.0214 | 0.0268 | 0.0292 | 8.95e-05 | 0.103 | 0.0158 | 0.0435 | 0.209 | 0.052 | 0.00699
318.15 K | 0.0263 | 0.033 | 0.035 | 0.00012 | 0.12 | 0.0194 | 0.0537 | 0.239 | 0.0614 | 0.00947
323.15 K | 0.0322 | 0.0405 | 0.0416 | 0.00016 | 0.138 | 0.0236 | 0.0663 | 0.27 | 0.0729 | 0.0129
